Experimental findings from patent US20250051316A1, “2-(ARYL-2-YL) […] […], PREPARATION METHOD THEREFOR AND APPLICATION THEREOF” (SHANGHAI HANSOH BIOMEDICAL CO., LTD., priority 2021, published 2025) are described below.

For orientation: AUC(0-t) means the area under the concentration-time curve up to a stated or last time point. High values mean more exposure, low ones less exposure. As a reminder, the Cmax is the highest concentration seen after dosing. The Tmax is the time at which the peak concentration occurs. As a reminder, the half-life is how long it takes for the measured level to halve. One may read the EC50 as the concentration that produces a half-maximal response. High values mean a less potent agent, low ones a more potent agent.

The structures appear in SMILES notation.

The nature of data set [1]: Pharmacokinetic assay of Balb/c mice, plasma and brain, oral. The settings on record: male, mouse, p.o. 5 mg/kg. The class given is in vivo. How it is done: Test Example 3. Pharmacokinetic Assay of Balb/c Mice
Balb/c Mice were used as test animals. The pharmacokinetic behavior of the compounds of the present invention was studied in the plasma and brain of mice administered orally at the dose of 5 mg/kg.
Balb/c Mice, male, Shanghai Jiesijie Experimental Animal Co., Ltd., animal production license number (SCXK (Shanghai) 2013-0006 N0.311620400001794).
After fasting overnight, 24 male Balb/c mice were administered p.o. at a dose of 5 mg/kg and an administration volume of 10 mL/kg, respectively.
Drug formulation for oral administration: 0.5% CMC-Na (1% Tween 80).
After CO2 euthanasia of experimental animals, heart blood and brain tissue were collected at 0.25 h, 0.5 h, 1 h, 2 h, 4 h, 6 h, 8 h, and 24 h after administration. The blood was placed in EDTA-2K tubes and centrifuged at 4° C. and 6000 rpm for 6 minutes to separate plasma. The brain tissue was washed with pre-cooled PBS, dried, weighed, and stored at −80° C. The animals were feed 4 hours after administration.
1) 160 μL of acetonitrile was added to 40 μL of the plasma sample for precipitation, and then the mixture was centrifuged at 3500×g for 5-20 min.
2) 100 μL of the supernatant was taken to analyze the concentration of the test compound by LC/MS/MS.
• Liquid chromatography condition: Shimadzu LC-20AD pump • Mass spectrometry condition: AB Sciex API 4000 mass spectrometer • Chromatographic column: phenomenex Gemiu 5 μm C18 50×4.6 mm • Mobile phase: Eluent A was 0.10% formic acid in water, and Eluent B was acetonitrile • Flow rate: […] • Elution time: 0-4.0 minutes, the eluent is as follows:
The main pharmacokinetic parameters were calculated using WinNonlin8.1, and the results of the pharmacokinetic experiments in mouse are shown in the table below.

The next data set has as its target T1, TAAR1 receptor (Homo sapiens, UniProt Q96RJ0).
T1 construct: expressed in transfected cells
T1 sequence (Q96RJ0 1-339): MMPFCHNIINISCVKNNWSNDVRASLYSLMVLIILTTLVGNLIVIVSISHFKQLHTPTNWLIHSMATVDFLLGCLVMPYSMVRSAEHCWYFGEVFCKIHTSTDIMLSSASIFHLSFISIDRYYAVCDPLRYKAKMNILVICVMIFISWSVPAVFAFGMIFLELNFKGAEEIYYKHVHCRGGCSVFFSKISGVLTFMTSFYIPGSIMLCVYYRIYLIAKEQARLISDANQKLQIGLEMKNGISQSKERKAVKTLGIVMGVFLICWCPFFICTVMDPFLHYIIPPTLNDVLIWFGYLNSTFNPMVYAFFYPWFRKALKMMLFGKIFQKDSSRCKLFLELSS
In words: Effect on cAMP content in cells which stably express TAAR1 receptor. The class given is cell-based. The method, then: Test Example1. Determination of the effect of the present compound on cAMP content in cells which stably express TAAR1 receptor
Determination of the activation effect of compounds on TAAR1 receptors.
• 1) Preparation of experimental buffer: 1*HBSS+20 mM HEPES+0.1% BSA+500 μM IBMX. • 2) Complete medium: • Ham's F12K+10% Fetal Bovine Serum+1*Penicillin-Streptomycin+200 μg/mL Hygromycin B for CHO • DMEM+10% Fetal Bovine Serum+1*Penicillin-Streptomycin+200 μg/mL Hygromycin B for HEK293 • 3) TAAR1 cell line was cultured in complete medium at 37° C. and 5% CO2; After TrypLE digestion, the cells were resuspended in the experimental buffer and seeded into a 384 cell culture plate with a density of 8000 cells/15 ul/well. • 4) The compound was diluted with experimental buffer and added 5 μL to each well to culture at 37° C. for 30 minutes. • 5) cAMP-d2 and Anti cAMP Eu3+ were freeze thaw, and diluted 20 times with lysis buffer; 10 μL cAMP-d2 was added to the experimental well, and then 10 μL Anti cAMP Eu3+ was added into the experimental well; the reaction plate was centrifuged at 200 g for 30 seconds at room temperature, and stand at 25° C. for 1 hour; data was collected by Envision.
[formula] • 5) EC50 of compounds was calculated using GraphPad nonlinear fitting formula:
[formula] • X: Log value of the compound concentration; Y: Activation %

For data set [2], the system named is C57BL/6 mice, high spontaneous activity induced by phencyclidine (PCP). In words: High spontaneous activity model of mice induced by phencyclidine (PCP). It counts as in vivo. The settings on record: 60 minutes after modeling. From the text: Test Example 2. Pharmacodynamic Evaluation of the Present Compounds in Mice Model of High Spontaneous Activity Induced by Phencyclidine (PCP)
The purpose of the experiment is to evaluate the efficacy of compounds in a high spontaneous activity model of C57BL/6 mice induced by phencyclidine (PCP) using the spontaneous activity method.
C57BL/6 mice, provided by Shanghai Lingchang Biotechnology Co., Ltd., male, 6-8 weeks, 20-24 g, 36 mice.
The day before the experimental test, the animals were placed in the laboratory and acclimated for 8 hours.
On the day of adaptation, the animals were randomly grouped according to their weight.
The animals were weithed and treated with solvent control (20% HP-3-CD), compounds of the present invention (oral administration) respectively. 30 minutes later, modeling (intraperitoneal administration) was performed, and the animals were given physiological saline or phencyclidine, with dosage volume of 10 mL/kg.
After the administration, the animals were placed in observation box and the spontaneous activity was detected for 30 minutes. The moving distance (meters) of the animals in the observation box was counted every 5 minutes.
After 30 minutes, the animals were taken out for modeling and then placed in the observation box to test their spontaneous activity for 60 minutes. The moving distance (meters) of the animals in the observation box was counted every 5 minutes.
Excel software was used to collect data. A Two-Way ANOVA or One-Way ANOVA was conducted used Prism (Graph pad software, Inc.) software. p<0.05 was considered significant difference.

With `[2H]c1ccc([C@H]2CNCCO2)nc1` (single isomer, unassigned) [Example 6-2, 2-(pyridin-2-yl-5-d)morpholine], in data set [1] (Brain), the AUC(0-t) came out at 6480 ng·h/mL, the highest level (Cmax) was 3030 ng/mL, the Tmax stood at 15 min and the half-life is 48 min. In data set [1] (Plasma), the AUC(0-t) is 4300 ng·h/mL, the Cmax came out at 2050 ng/mL, the Tmax is 15 min and the half-life was 48 min. The midpoint of the response at TAAR1 receptor, the EC50, lay at 3.4 nM.

Turning to `[2H]c1ccnc([C@@H]2CNCCO2)c1` (single isomer, unassigned) [Example 7-2, 2-(pyridin-2-yl-4-d)morpholine], in data set [1] (Brain), the AUC(0-t) was 4410 ng·h/mL, the Cmax amounted to 2500 ng/mL, the time of peak concentration (Tmax) turned out to be 30 min and the half-life was 54 min. Moreover, in data set [1] (Plasma), the AUC(0-t) worked out at 2840 ng·h/mL, the peak level (Cmax) was 1560 ng/mL, the Tmax amounted to 30 min and the half-life is 48 min. On TAAR1 receptor, the EC50 was 5.9 nM.

Turning to `Clc1ccc(C2CNCCO2)nc1` (single isomer, unassigned) [Example 25-2], on TAAR1 receptor, the EC50 was found to be 207 nM.

Regarding `Fc1cccc([C@@H]2CNCCO2)c1` [Example 48-1], a half-maximal effect at TAAR1 receptor (EC50) was put at 2.1 nM.

`c1ccc(C2CNCCO2)nc1` (stereo not shown) [Compound A, 2-(Pyridin-2-yl)morpholine] returned a half-maximal effective concentration (EC50) at TAAR1 receptor of 7.1 nM. Further, in data set [2] (compound 6 mg/kg oral + PCP 5 mg/kg i.p.), the “Total distance (m, Mean ± SEM) 60 minutes” value turned out to be 113.09 ± 12.69 m.

In the case of `[2H]C1([2H])COC(c2cc(C)ccn2)CN1` (single isomer, unassigned) [Example 16-1, 2-(4-Methylpyridin-2-yl)morpholin-5,5-d2], in data set [1] (Brain), the AUC(0-t) is 5630 ng·h/mL, the Cmax came out at 1740 ng/mL, the Tmax stood at 15 min and the half-life was 174 min. Besides, in data set [1] (Plasma), the AUC(0-t) was found to be 2270 ng·h/mL, the Cmax is 890 ng/mL, the Tmax is 15 min and the half-life is 114 min. Further, on TAAR1 receptor, the midpoint of the response, the EC50, lay at 21.3 nM.

Turning to `Clc1cccc(C2CNCCO2)c1` (single isomer, unassigned) [Example 46-1, 2-(3-Chlorophenyl)morpholine], on TAAR1 receptor, the concentration for a half-maximal effect (EC50) was 17.7 nM.

With `Cc1nc([C@@H]2CNCCO2)ccc1F` (single isomer, unassigned) [Example 19-2, 2-(5-fluoro-6-methyl-2-pyridyl)morpholine], in data set [1] (Brain), the AUC(0-t) was 8640 ng·h/mL, the Cmax turned out to be 2510 ng/mL, the Tmax was 120 min and the half-life is 66 min. In addition, in data set [1] (Plasma), the AUC(0-t) was determined as 2760 ng·h/mL, the Cmax was 705 ng/mL, the Tmax is 120 min and the half-life is 222 min. The EC50 on TAAR1 receptor turned out to be 13.6 nM.

Turning to `Cc1cccc([C@@H]2CNCCO2)c1` [Example 47-2], the EC50 on TAAR1 receptor was 11.5 nM.

As to `[2H]c1ccc(C2CNCCO2)cc1` (single isomer, unassigned) [Example 28-2, 2-(phenyl-4-d)morpholine], in data set [1] (Brain), the exposure AUC(0-t) amounted to 3980 ng·h/mL, the peak concentration (Cmax) was 2110 ng/mL, the Tmax was determined as 15 min and the half-life is 78 min. Besides, in data set [1] (Plasma), the AUC(0-t) was determined as 2820 ng·h/mL, the Cmax was 1340 ng/mL, the Tmax was found to be 15 min and the half-life was 84 min. Also, it took 3 nM to reach a half-maximal effect on TAAR1 receptor (EC50). The “Total distance (m, Mean ± SEM) 60 minutes” value in data set [2] (compound 3 mg/kg oral + PCP 5 mg/kg i.p.) is 113.09 ± 12.69 m.
